Read-outs that look alike come from different tables or passages of the source.
Tests used:
Assay in all cases: biochemical
Type in all cases: binding
[1] = molecular target: 468 kinases including some pathogenic mutants (Homo sapiens, UniProt P53779); settings: JNK3 (Entrez MAPK10), 100 nM; read-out: Percent Control
[2] = molecular target: 468 kinases including some pathogenic mutants (Homo sapiens, UniProt P10721, L576P); settings: read-out: Percent Control
[3] = molecular target: 468 kinases including some pathogenic mutants (Homo sapiens, UniProt Q13557); settings: CAMK2D (Entrez CAMK2D), 100 nM; read-out: Percent Control
[4] = molecular target: 468 kinases including some pathogenic mutants (Homo sapiens, UniProt Q16832); settings: DDR2 (Entrez DDR2), 100 nM; read-out: Percent Control
Sequence of 468 kinases including some pathogenic mutants (Homo sapiens, UniProt Q16832) (Q16832 22-855, change not shown): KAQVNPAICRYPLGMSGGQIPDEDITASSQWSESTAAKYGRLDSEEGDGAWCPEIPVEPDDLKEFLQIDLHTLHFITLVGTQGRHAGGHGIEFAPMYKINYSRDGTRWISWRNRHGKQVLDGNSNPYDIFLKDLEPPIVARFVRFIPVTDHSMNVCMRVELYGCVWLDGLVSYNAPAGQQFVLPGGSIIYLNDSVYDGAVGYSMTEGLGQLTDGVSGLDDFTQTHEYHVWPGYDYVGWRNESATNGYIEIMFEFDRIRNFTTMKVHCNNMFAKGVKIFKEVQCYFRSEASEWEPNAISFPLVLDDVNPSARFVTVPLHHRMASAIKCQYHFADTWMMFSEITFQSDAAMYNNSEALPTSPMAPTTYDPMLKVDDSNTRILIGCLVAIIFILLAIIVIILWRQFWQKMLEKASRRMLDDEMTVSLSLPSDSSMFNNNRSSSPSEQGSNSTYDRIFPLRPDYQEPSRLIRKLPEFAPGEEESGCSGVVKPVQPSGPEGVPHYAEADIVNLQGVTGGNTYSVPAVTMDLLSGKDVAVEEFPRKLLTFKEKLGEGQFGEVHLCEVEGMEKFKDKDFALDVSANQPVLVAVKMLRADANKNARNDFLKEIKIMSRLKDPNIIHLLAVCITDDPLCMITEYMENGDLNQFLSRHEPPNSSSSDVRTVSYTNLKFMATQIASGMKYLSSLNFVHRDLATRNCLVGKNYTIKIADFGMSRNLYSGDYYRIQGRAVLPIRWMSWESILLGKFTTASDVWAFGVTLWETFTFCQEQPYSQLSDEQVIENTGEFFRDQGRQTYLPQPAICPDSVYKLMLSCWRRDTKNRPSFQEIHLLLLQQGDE

[5] = molecular target: 468 kinases including some pathogenic mutants (Homo sapiens, UniProt P42680); settings: TEC (Entrez TEC), 1000 nM; read-out: Percent Control
[6] = molecular target: 468 kinases including some pathogenic mutants (Homo sapiens, UniProt Q9UHD2); settings: TBK1 (Entrez TBK1), 100 nM; read-out: Percent Control
Sequence of 468 kinases including some pathogenic mutants (Homo sapiens, UniProt Q9UHD2) (Q9UHD2 whole entry, change not shown): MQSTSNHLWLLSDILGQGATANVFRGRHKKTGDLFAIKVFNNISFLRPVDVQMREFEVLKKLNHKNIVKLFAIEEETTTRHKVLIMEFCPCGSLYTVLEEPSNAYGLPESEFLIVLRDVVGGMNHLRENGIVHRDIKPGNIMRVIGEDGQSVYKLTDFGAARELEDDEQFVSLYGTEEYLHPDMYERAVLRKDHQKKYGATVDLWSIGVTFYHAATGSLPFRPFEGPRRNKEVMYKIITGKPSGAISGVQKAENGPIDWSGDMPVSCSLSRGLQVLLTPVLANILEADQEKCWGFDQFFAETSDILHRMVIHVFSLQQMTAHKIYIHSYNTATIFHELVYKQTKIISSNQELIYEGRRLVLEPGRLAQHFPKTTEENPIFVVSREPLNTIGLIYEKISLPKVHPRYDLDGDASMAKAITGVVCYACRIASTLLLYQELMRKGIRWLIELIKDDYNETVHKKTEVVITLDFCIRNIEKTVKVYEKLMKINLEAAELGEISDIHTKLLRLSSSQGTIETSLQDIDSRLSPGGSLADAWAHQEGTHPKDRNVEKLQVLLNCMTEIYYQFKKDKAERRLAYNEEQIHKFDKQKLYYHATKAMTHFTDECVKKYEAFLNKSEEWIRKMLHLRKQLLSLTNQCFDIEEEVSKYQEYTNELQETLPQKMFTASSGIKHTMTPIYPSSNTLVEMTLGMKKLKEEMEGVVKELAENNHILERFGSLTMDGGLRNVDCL

[7] = molecular target: 468 kinases including some pathogenic mutants (Homo sapiens, UniProt Q96PY6); settings: NEK1 (Entrez NEK1), 1000 nM; read-out: Percent Control
[8] = molecular target: 468 kinases including some pathogenic mutants (Homo sapiens, UniProt Q12851); settings: MAP4K2 (Entrez MAP4K2), 100 nM; read-out: Percent Control
Sequence of 468 kinases including some pathogenic mutants (Homo sapiens, UniProt Q12851) (Q12851 whole entry, change not shown): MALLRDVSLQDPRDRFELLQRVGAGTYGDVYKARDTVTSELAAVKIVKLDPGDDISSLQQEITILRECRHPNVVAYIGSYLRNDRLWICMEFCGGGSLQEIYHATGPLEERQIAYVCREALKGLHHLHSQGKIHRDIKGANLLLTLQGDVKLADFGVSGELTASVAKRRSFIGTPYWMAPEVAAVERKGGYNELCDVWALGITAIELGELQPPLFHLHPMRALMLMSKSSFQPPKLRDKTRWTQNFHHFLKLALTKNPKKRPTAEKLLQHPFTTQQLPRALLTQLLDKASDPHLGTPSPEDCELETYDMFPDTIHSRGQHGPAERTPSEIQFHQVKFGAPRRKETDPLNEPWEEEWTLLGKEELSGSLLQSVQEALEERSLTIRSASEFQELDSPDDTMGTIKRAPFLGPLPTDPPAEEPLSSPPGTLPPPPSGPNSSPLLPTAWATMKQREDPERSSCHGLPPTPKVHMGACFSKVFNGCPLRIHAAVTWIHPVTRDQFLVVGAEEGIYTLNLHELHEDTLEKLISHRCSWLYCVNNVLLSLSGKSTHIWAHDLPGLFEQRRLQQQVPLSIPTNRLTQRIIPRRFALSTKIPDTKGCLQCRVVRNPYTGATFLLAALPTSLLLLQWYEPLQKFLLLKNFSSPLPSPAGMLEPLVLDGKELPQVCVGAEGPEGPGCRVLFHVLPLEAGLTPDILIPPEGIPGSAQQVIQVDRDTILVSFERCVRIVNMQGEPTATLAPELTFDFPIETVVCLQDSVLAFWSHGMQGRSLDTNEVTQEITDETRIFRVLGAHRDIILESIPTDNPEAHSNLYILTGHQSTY

[9] = molecular target: 468 kinases including some pathogenic mutants (Homo sapiens, UniProt Q15569); settings: TESK1 (Entrez TESK1), 100 nM; read-out: Percent Control
Sequence of 468 kinases including some pathogenic mutants (Homo sapiens, UniProt Q15569) (Q15569 whole entry, change not shown): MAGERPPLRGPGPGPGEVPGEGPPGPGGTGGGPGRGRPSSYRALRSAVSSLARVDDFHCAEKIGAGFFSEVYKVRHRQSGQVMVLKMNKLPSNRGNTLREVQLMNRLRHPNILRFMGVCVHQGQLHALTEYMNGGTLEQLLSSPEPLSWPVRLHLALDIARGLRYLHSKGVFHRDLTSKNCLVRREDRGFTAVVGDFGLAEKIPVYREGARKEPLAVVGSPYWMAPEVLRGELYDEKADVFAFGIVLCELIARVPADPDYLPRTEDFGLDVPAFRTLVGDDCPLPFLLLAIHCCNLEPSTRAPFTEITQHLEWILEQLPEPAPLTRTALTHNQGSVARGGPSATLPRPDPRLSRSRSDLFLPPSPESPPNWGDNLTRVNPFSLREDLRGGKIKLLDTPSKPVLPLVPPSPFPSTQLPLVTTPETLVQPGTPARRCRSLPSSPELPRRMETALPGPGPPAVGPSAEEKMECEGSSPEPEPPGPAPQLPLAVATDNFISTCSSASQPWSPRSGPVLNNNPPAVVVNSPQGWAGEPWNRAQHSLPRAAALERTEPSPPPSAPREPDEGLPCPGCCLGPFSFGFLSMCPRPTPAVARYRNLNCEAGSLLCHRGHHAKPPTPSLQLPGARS

[10] = molecular target: 468 kinases including some pathogenic mutants (Homo sapiens, UniProt P36507); settings: MEK2 (Entrez MAP2K2), 1000 nM; read-out: Percent Control
[11] = molecular target: 468 kinases including some pathogenic mutants (Homo sapiens, UniProt Q12866); settings: MERTK (Entrez MERTK), 100 nM; read-out: Percent Control
Sequence of 468 kinases including some pathogenic mutants (Homo sapiens, UniProt Q12866) (Q12866 21-999, change not shown): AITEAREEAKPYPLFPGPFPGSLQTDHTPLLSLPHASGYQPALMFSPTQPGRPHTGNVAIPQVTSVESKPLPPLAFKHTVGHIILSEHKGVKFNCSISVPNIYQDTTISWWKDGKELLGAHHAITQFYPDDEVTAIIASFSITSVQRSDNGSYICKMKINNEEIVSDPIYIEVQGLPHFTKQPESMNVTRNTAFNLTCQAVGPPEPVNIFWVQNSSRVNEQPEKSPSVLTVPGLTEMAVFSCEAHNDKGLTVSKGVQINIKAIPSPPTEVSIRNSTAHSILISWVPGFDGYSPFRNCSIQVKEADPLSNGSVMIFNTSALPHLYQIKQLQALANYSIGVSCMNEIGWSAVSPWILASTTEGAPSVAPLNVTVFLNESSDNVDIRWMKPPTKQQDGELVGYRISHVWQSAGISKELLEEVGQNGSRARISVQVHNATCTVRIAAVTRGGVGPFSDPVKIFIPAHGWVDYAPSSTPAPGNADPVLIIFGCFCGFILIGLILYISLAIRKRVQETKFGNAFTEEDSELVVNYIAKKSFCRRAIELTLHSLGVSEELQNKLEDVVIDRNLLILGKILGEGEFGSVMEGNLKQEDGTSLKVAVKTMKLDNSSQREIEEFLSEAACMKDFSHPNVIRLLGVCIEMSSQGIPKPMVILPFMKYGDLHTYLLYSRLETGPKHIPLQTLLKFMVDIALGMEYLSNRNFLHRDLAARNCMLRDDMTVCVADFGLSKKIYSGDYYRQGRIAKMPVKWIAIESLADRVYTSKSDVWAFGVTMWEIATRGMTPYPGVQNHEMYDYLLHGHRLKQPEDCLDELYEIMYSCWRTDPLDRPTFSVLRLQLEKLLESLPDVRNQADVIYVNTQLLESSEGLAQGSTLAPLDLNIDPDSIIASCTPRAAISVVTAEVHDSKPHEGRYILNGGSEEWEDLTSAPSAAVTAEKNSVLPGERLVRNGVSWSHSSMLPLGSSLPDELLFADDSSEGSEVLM

[12] = molecular target: 468 kinases including some pathogenic mutants (Homo sapiens, UniProt Q8N752); settings: CSNK1A1L (Entrez CSNK1A1L), 100 nM; read-out: Percent Control
[13] = molecular target: 468 kinases including some pathogenic mutants (Homo sapiens, UniProt P80192); settings: MLK1 (Entrez MAP3K9), 1000 nM; read-out: Percent Control
[14] = molecular target: 468 kinases including some pathogenic mutants (Homo sapiens, UniProt Q9BXA7); settings: TSSK1B (Entrez TSSK1B), 100 nM; read-out: Percent Control
[15] = molecular target: 468 kinases including some pathogenic mutants (Homo sapiens, UniProt Q8IW41); settings: MAPKAPK5 (Entrez MAPKAPK5), 1000 nM; read-out: Percent Control
[16] = molecular target: 468 kinases including some pathogenic mutants (Homo sapiens, UniProt P11802); settings: 100 nM, read-out: Percent Control
Sequence of 468 kinases including some pathogenic mutants (Homo sapiens, UniProt P11802) (P11802 whole entry, stated change not applied): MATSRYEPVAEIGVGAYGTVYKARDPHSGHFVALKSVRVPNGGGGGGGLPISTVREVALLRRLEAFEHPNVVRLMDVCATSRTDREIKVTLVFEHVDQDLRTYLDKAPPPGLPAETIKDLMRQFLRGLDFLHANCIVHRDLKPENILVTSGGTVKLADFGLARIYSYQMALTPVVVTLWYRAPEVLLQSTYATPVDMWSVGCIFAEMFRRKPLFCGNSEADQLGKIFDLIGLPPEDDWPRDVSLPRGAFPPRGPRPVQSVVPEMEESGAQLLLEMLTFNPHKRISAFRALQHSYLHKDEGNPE

[17] = molecular target: 468 kinases including some pathogenic mutants (Homo sapiens, UniProt P08581, M1250T); settings: read-out: Percent Control
[18] = molecular target: 468 kinases including some pathogenic mutants (Homo sapiens, UniProt Q00526); settings: CDK3 (Entrez CDK3), 100 nM; read-out: Percent Control
[19] = molecular target: 468 kinases including some pathogenic mutants (Homo sapiens, UniProt Q9Y2U5); settings: MAP3K2 (Entrez MAP3K2), 1000 nM; read-out: Percent Control
[20] = molecular target: 468 kinases including some pathogenic mutants (Homo sapiens, UniProt Q8TDR2); settings: STK35 (Entrez STK35), 1000 nM; read-out: Percent Control
[21] = molecular target: 468 kinases including some pathogenic mutants (Homo sapiens, UniProt P14616); settings: INSRR (Entrez INSRR), 100 nM; read-out: Percent Control
[22] = molecular target: 468 kinases including some pathogenic mutants (Homo sapiens, UniProt Q13153); settings: PAK1 (Entrez PAK1), 100 nM; read-out: Percent Control
[23] = molecular target: 468 kinases including some pathogenic mutants (Homo sapiens, UniProt Q8WTQ7); settings: GRK7 (Entrez GRK7), 100 nM; read-out: Percent Control
[24] = molecular target: 468 kinases including some pathogenic mutants (Homo sapiens, UniProt O75747); settings: PIK3C2G (Entrez PIK3C2G), 100 nM; read-out: Percent Control
[25] = molecular target: 468 kinases including some pathogenic mutants (Homo sapiens, UniProt Q13555); settings: CAMK2G (Entrez CAMK2G), 100 nM; read-out: Percent Control
[26] = molecular target: 468 kinases including some pathogenic mutants (Homo sapiens, UniProt Q9NRH2); settings: SNRK (Entrez SNRK), 1000 nM; read-out: Percent Control
[27] = molecular target: 468 kinases including some pathogenic mutants (Homo sapiens, UniProt Q13131); settings: AMPK-alpha1 (Entrez PRKAA1), 100 nM; read-out: Percent Control
[28] = molecular target: 468 kinases including some pathogenic mutants (Homo sapiens, UniProt Q13163); settings: MEK5 (Entrez MAP2K5), 100 nM; read-out: Percent Control

Sequence of 468 kinases including some pathogenic mutants (Homo sapiens, UniProt P53779) (P53779 whole entry, stated change not applied): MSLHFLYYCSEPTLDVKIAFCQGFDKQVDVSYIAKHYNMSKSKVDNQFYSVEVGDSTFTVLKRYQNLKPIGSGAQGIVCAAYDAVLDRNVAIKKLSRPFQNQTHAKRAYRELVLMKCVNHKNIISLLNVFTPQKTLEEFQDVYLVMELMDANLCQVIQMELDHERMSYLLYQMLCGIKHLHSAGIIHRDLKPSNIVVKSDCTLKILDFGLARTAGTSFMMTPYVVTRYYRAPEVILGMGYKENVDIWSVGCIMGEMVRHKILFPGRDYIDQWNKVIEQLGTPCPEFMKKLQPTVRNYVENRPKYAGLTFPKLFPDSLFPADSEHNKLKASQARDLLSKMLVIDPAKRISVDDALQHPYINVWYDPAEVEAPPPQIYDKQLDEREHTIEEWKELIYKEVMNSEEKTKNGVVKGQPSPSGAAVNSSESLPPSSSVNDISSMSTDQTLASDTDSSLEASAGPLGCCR

CN1C(=O)[C@@H](N2CCc3c(nn(Cc4ccccc4)c3C(N)=O)C2=O)COc2cc(Cl)ccc21 [Compound 10, (S)-2-benzyl-6-(8-chloro-5-methyl-4-oxo-2,3,4,5-tetrahydrobenzo[b][1,4]oxazepin-3-yl)-7-oxo-4,5,6,7-tetrahydro-2H-pyrazolo[3,4-c]pyridine-3-carboxamide] gave a remaining activity at 0.1 µM [1] of 77%, a remaining activity at 0.1 µM [2] of 72% and a remaining activity at 0.1 µM [3] of 80%. It also gave a remaining activity at 0.1 µM [4] of 84%, a remaining activity at 1 µM [5] of 100% and a remaining activity at 0.1 µM [6] of 89%. For the same molecule, the remaining activity at 1 µM [7] was 100%, the remaining activity at 0.1 µM [8] was 70% and the remaining activity at 0.1 µM [9] was 79%. It also gave a remaining activity at 1 µM [10] of 100%, a remaining activity at 0.1 µM [11] of 72% and a remaining activity at 0.1 µM [12] of 86%. For the same molecule, the remaining activity at 1 µM [13] was 100%, the remaining activity at 0.1 µM [14] was 83% and the remaining activity at 1 µM [15] was 100%. For the same molecule, the remaining activity at 0.1 µM ([16]; CDK4 (Entrez CDK4)) was 94%, the remaining activity at 0.1 µM ([16]; CDK4-cyclinD1 (Entrez CDK4)) was 77% and the remaining activity at 0.1 µM ([16]; CDK4-cyclinD3 (Entrez CDK4)) was 92%. For the same molecule, the remaining activity at 0.1 µM [17] was 80%, the remaining activity at 0.1 µM [18] was 80% and the remaining activity at 1 µM [19] was 100%. The remaining activity at 1 µM [20] was 100%, the remaining activity at 0.1 µM [21] was 68% and the remaining activity at 0.1 µM [22] was 88%. For the same molecule, the remaining activity at 0.1 µM [23] was 77%, the remaining activity at 0.1 µM [24] was 67% and the remaining activity at 0.1 µM [25] was 78%. It also gave a remaining activity at 1 µM [26] of 100%, a remaining activity at 0.1 µM [27] of 65% and a remaining activity at 0.1 µM [28] of 89%.
